Assay results as given in article PMC7583898, “Novel Harmicines with Improved Potency against Plasmodium” (Molecules, 2020).
Read-outs that look alike come from different tables or passages of the source.

Assays:
[1] = tested on: human liver hepatocellular carcinoma cell line (HepG2); experiment: In vitro cytotoxicity assay (neutral red); assay type: cell-based; details: for IC50: Homo sapiens, HepG2, 24 h, neutral red, one day incubation, mean ± SD; for SI, selectivity index: ratio between IC50 (HepG2) and IC50 (Pf3D7)
Procedure: A cytotoxicity assay was performed using the neutral red assay, as described previously, against human liver hepatocellular carcinoma cell line (HepG2) (Table 1). For the safety assessment, a selectivity index (SI) for each compound was calculated as the fractional ratio between the IC50 values for HepG2 and P. falciparum Pf3D7 strain (Table 2). In general, N-harmicines 5 are less cytotoxic than O-harmicines 6, which is in agreement with the results obtained for triazole-type harmicines. Furthermore, all N-harmicines, but only two O-harmicines, 6d and 6f, have more favorable SIs than the parent compound harmine (SI = 30). […] Compound 5b, with a m-fluorine substituent in the cinnamic scaffold, exerted the highest selectivity (SI = 773), followed by 5a, an amide with unsubstituted cinnamic acid (SI = 715).
Cytotoxicity against a human cell line (HepG2) was evaluated using the neutral red assay. In brief, human cells were seeded to a 96 well plate in complete culture medium, before on the following day a serial dilution of the respective compound was added. After one day of incubation, cytotoxicity was evaluated by the addition of Neutral Red, subsequent lysis of cells and the measurement of absorbance in a plate reader. The IC50 was determined as for the in vitro drug assay against P. falciparum. To assess the safety of a compound, SI was calculated as the fractional ratio between the IC50 values for HepG2 and the P. falciparum 3D7 strain.

[2] = tested on: P. falciparum erythrocytic stage, Pf3D7 (chloroquine-sensitive) strain; experiment: In vitro drug sensitivity assay against erythrocytic stage of P. falciparum, Pf3D7 strain (HRP2-ELISA); assay type: cell-based; details: Plasmodium falciparum, mean ± SD
Procedure: (§1) The antiplasmodial activity of harmicines 5 and 6 was evaluated against two laboratory P. falciparum strains (3D7 – CQ-sensitive, and Dd2 – CQ-resistant), as previously described, using the histidine-rich protein 2 (HRP2) assay. […] After three days of incubation at 37 °C, 5% CO2 and 5% oxygen, plates were frozen until analyzed by HRP2-ELISA. All compounds were evaluated in duplicate in at least two independent experiments. The IC50 was determined by nonlinear regression analysis of log concentration–response curves using the drc package v0.9.0 of R v2.6.1 [22].

[3] = tested on: P. falciparum erythrocytic stage, PfDd2 (chloroquine-resistant) strain; experiment: In vitro drug sensitivity assay against erythrocytic stage of P. falciparum, PfDd2 strain (HRP2-ELISA); assay type: cell-based; details: Plasmodium falciparum, mean ± SD
Procedure: as §1

[4] = tested on: P. falciparum erythrocytic stage, Pf3D7 (chloroquine-sensitive) strain; design: method as in PMID 31812035; details: ref [15]; cited from earlier work
[5] = tested on: P. falciparum erythrocytic stage, PfDd2 (chloroquine-resistant) strain; details: ref [15]; cited from earlier work
[6] = tested on: human liver hepatocellular carcinoma cell line (HepG2); design: method as in PMID 31812035; details: ref [15]; cited from earlier work

Row | IC50 [2] [µM] | IC50 [3] [µM] | SMILES | IC50 [1] [µM] | SI, selectivity index [1] | IC50 [4] [µM] | IC50 [5] [µM] | IC50 [6] [µM]
1 | 0.49 ± 0.25 | 1.11 ± 0.15 | COc1ccc2c3ccnc(C)c3n(CCNC(=O)C=Cc3ccccc3)c2c1 [5a, N-(2-(7-methoxy-1-methyl-9H-pyrido[3,4-b]indol-9-yl)ethyl)cinnamamide] | 350 ± 13 | 715 |  |  | 
2 | 0.07 ± 0.03 | 0.78 ± 0.32 | COc1ccc2c3ccnc(C)c3n(CCNC(=O)/C=C/c3cccc(F)c3)c2c1 [5b, (E)-3-(3-fluorophenyl)-N-(2-(7-methoxy-1-methyl-9H-pyrido[3,4-b]indol-9-yl)ethyl)acrylamide] | 54.1 ± 13.4 | 773 |  |  | 
3 | 0.07 ± 0.03 | 0.41 ± 0.01 | COc1ccc2c3ccnc(C)c3n(CCNC(=O)/C=C/c3cccc(Br)c3)c2c1 [5c, (E)-3-(3-bromophenyl)-N-(2-(7-methoxy-1-methyl-9H-pyrido[3,4-b]indol-9-yl)ethyl)acrylamide] | 2.88 ± 0.42 | 41 |  |  | 
4 | 0.09 ± 0.06 | 0.33 ± 0.11 | COc1ccc2c3ccnc(C)c3n(CCNC(=O)/C=C/c3ccc(F)cc3)c2c1 [5d, (E)-3-(4-fluorophenyl)-N-(2-(7-methoxy-1-methyl-9H-pyrido[3,4-b]indol-9-yl)ethyl)acrylamide] | 21 ± 0.88 | 233 |  |  | 
5 | 0.04 ± 0.02 | 0.17 ± 0.01 | COc1ccc2c3ccnc(C)c3n(CCNC(=O)/C=C/c3ccc(Cl)cc3)c2c1 [5e, (E)-3-(4-chlorophenyl)-N-(2-(7-methoxy-1-methyl-9H-pyrido[3,4-b]indol-9-yl)ethyl)acrylamide] | 2.91 ± 1.75 | 73 |  |  | 
6 | 0.26 ± 0.001 | 0.49 ± 0.24 | COc1ccc(/C=C/C(=O)NCCn2c3cc(OC)ccc3c3ccnc(C)c32)cc1 [5f, (E)-N-(2-(7-methoxy-1-methyl-9H-pyrido[3,4-b]indol-9-yl)ethyl)-3-(4-methoxyphenyl)acrylamide] | 74.7 ± 7.61 | 287 |  |  | 
7 | 0.98 ± 0.12 | 4.7 ± 2.65 | Cc1nccc2c1[nH]c1cc(OCCNC(=O)C=Cc3ccccc3)ccc12 [6a, N-(2-((1-methyl-9H-pyrido[3,4-b]indol-7-yl)oxy)ethyl)cinnamamide] | 12.7 ± 0.66 | 13 |  |  | 
8 | 2.75 ± 1.6 | 5.01 ± 0.83 | Cc1nccc2c1[nH]c1cc(OCCNC(=O)/C=C/c3cccc(F)c3)ccc12 [6b, (E)-3-(3-fluorophenyl)-N-(2-((1-methyl-9H-pyrido[3,4-b]indol-7-yl)oxy)ethyl)acrylamide] | 12.9 ± 3.31 | 5 |  |  | 
9 | 0.37 ± 0.22 | 0.48 ± 0.28 | Cc1nccc2c1[nH]c1cc(OCCNC(=O)/C=C/c3cccc(Br)c3)ccc12 [6c, (E)-3-(3-bromophenyl)-N-(2-((1-methyl-9H-pyrido[3,4-b]indol-7-yl)oxy)ethyl)acrylamide] | 6.11 ± 2.07 | 16 |  |  | 
10 | 0.15 ± 0.06 | 0.69 ± 0.18 | Cc1nccc2c1[nH]c1cc(OCCNC(=O)/C=C/c3ccc(F)cc3)ccc12 [6d, (E)-3-(4-fluorophenyl)-N-(2-((1-methyl-9H-pyrido[3,4-b]indol-7-yl)oxy)ethyl)acrylamide] | 7.63 ± 2.47 | 51 |  |  | 
11 | 0.32 ± 0.03 | 0.4 ± 0.24 | Cc1nccc2c1[nH]c1cc(OCCNC(=O)/C=C/c3ccc(Cl)cc3)ccc12 [6e, (E)-3-(4-chlorophenyl)-N-(2-((1-methyl-9H-pyrido[3,4-b]indol-7-yl)oxy)ethyl)acrylamide] | 7.72 ± 3.04 | 24 |  |  | 
12 | 0.21 ± 0.14 | 1.09 ± 0.49 | COc1ccc(/C=C/C(=O)NCCOc2ccc3c(c2)[nH]c2c(C)nccc23)cc1 [6f, (E)-3-(4-methoxyphenyl)-N-(2-((1-methyl-9H-pyrido[3,4-b]indol-7-yl)oxy)ethyl)acrylamide] | 10.5 ± 0.43 | 50 |  |  | 
13 | 0.93 ± 0.28 | 3.92 ± 1.35 | Cc1nccc2c1[nH]c1cc(OCCNC(=O)/C=C/c3ccccc3F)ccc12 [6g, (E)-3-(2-fluorophenyl)-N-(2-((1-methyl-9H-pyrido[3,4-b]indol-7-yl)oxy)ethyl)acrylamide] | 16.2 ± 1.86 | 17 |  |  | 
14 | 6.78 ± 0.72 | 19.5 ± 11.8 | C/C(=C\c1ccccc1)C(=O)NCCOc1ccc2c(c1)[nH]c1c(C)nccc12 [6h, (E)-2-methyl-N-(2-((1-methyl-9H-pyrido[3,4-b]indol-7-yl)oxy)ethyl)-3-phenylacrylamide] | 61.3 ± 2.75 | 9 |  |  | 
15 |  |  | CCN(CC)CCCC(C)Nc1ccnc2cc(Cl)ccc12 (stereo not drawn) [CQ, chloroquine] |  |  | 0.003 ± 0.002 | 0.2 ± 0.1 | 
16 |  |  | COc1ccc2c(c1)[nH]c1c(C)nccc12 [Harmine, harmine] |  |  |  | > 27.7 | > 250
